A value given as a limit tells only on which side of the number the result lay.

The subject of the test is INS-1E rat beta cells, no cytokines, CellTiter-Glo ATP, 48 h. The test is described as follows: ATP level change in INS-1E without cytokines, dose response, counter-screen for beta-cell apoptosis protection project, INS-1E rat cells, ATP luminescence, cherry pick (AID 463229).
Consider `COc1ccc(-n2c(-c3ccc(Cl)cc3)c[n+]3c2CCCCC3)cc1`, for which the AC50 is 1.6 µM.

As for `Nc1cc2c3c(cccc3c1)C(=O)N(CCN1CCCC1)C2=O`, the AC50 is 12.7 µM.

In the case of `Cc1ccc(Nc2cc(C)nc(NCc3ccccc3)n2)cc1`, the AC50 is 8.01 µM.

`CC(C)(C)c1cc(C(=O)N/N=C/c2ccccc2O)n(-c2ccccc2)n1`: the AC50 is 10.1 µM.

Take `c1ccc(-c2nc(NCc3ccco3)c3ccccc3n2)nc1`: the AC50 was 8.46 µM.

With `c1nc(NCc2ccc3c(c2)OCO3)c2cc(-c3ccc4c(c3)OCCO4)ccc2n1`, the AC50 was 15.5 µM.

With `COc1ccc(-c2nn(-c3ccccc3)cc2/C=N/N2C(=O)CSC2=S)cc1`, the AC50 was 6.57 µM.

For `O=S1(=O)C=C(Sc2nnc(-c3ccccc3)o2)c2ccccc21`, the AC50 was 7.96 µM.

Take `CC(C)(C)c1nnc(N/N=C/c2cc(Br)ccc2O)n(N)c1=O`: the AC50 was 3.97 µM.

For `CCN(CC)S(=O)(=O)c1ccc(NC(=O)Nc2cccc(C(F)(F)F)c2)cc1`, the concentration at half-maximal activity (AC50) was 8.02 µM.

In the case of `O=C(Nc1nc(NC(=O)c2ccco2)n(-c2ccccc2)n1)c1ccccc1`, the AC50 is 6.83 µM.

For `C=CCn1c(SCC(=O)c2[nH]c(C)c(C(=O)OCC)c2C)nc2scc(-c3ccc(OC)c(OC)c3)c2c1=O`, the AC50 was 3.53 µM.

With `COc1ccc(/C=C/c2nc3ccccc3n2C)cc1`, the AC50 was 3.13 µM.

`COc1ccc(CCNc2c(C)c(C)nc3ncnn23)cc1`: the AC50 was 3.68 µM.

On to `CCCCCCCCSc1nnc(CSc2nc3nc(C)cc(C)n3n2)o1`, for which the AC50 was 26.1 µM.

As to `Cc1ccc2nc(N(CCCN(C)C)C(=O)c3ccc(S(=O)(=O)N4CCc5ccccc5C4)cc3)sc2c1`, the AC50 is 6.99 µM.

Regarding `CCCCCCCCCCOC(=O)Cn1c(COc2cccc(C)c2)[n+](C)c2ccccc21`, the AC50 is 4.71 µM.

Turning to `CCn1cc(/C=C/c2cc[n+](C)cc2)c2ccccc21`, the AC50 is 4.44 µM.

Consider `N#Cc1c([N+](=O)[O-])cc([N+](=O)[O-])cc1S(=O)(=O)Cc1ccccc1`, for which the AC50 is 4.91 µM.

On to `CN1CCN(c2ccc([N+](=O)[O-])c3no[n+]([O-])c23)CC1`, for which the AC50 is 1.9 µM.

For `COC(=O)C1=C(c2ccc(OCc3ccccc3)cc2)C[C@@H]2CC[C@H]1N2C(=O)NC1CCN(Cc2ccccc2)CC1`, the AC50 is 7.55 µM.

Take `Cc1ccc(N(CC(=O)Nc2cc(C)cc(C)c2)S(=O)(=O)c2c(C)noc2C)cc1`: the AC50 is 14.5 µM.

Consider `CCN1/C(=C/c2ccc3cc(C)ccc3[n+]2CC)Sc2ccc3sccc3c21`, for which the AC50 is 0.316 µM.

As to `O=C(Nc1nc2ccc(F)cc2s1)c1ccccn1`, the AC50 is 4.43 µM.

On to `CCCC(=O)NC(c1ccc(Cl)cc1Cl)c1ccc2cccnc2c1O` (stereo unspecified), for which the AC50 was 2.3 µM.

Consider `C#CCOCCOCCOCCNc1nc(N2CCN(C(=O)CCCCCCCCCCNC(=O)[C@H]([C@@H](C)CC)n3cc(CCCCCN)nn3)CC2)nc(N2CCN(C(=O)CCCCCCCCCCNC(=O)[C@H]([C@@H](C)CC)n3cc(CCCCN=C(N)N)nn3)CC2)n1`, for which the AC50 was 6.72 µM.

As to `CC(C)(C)C1C/C(=C/c2ccccn2)C(=O)/C(=C/c2ccccn2)C1` (stereo unspecified), the AC50 is 0.672 µM.

As for `CC(C)Cn1c(SCC(=O)N2CCc3ccccc3C2)nc2cc(Cl)ccc2c1=O`, the AC50 is 6.5 µM.

On to `C=CC(C)(C)c1c(O)c(CC=C(C)C)c(O)c2c(=O)c3ccc(O)c(O)c3oc12`, for which the AC50 is 5.39 µM.

`Cc1cc(-c2ccccc2)cc(-c2ccccc2)[n+]1CCc1ccccc1`: the AC50 is below 0.195 µM.

Turning to `O=C(N/N=C(\c1ccccc1)c1cccnc1)c1cccc(F)c1`, the AC50 was 2.56 µM.

Regarding `COC(=O)c1ccc(NC(=O)c2nc(S(=O)(=O)Cc3cccc(C)c3)ncc2Cl)cc1`, the AC50 was 10.8 µM.

Regarding `Cc1cccc2nc(CSc3nc4[nH]ncc4c(=O)n3-c3cccc(Cl)c3)cc(=O)n12`, the AC50 is 7.35 µM.

With `CC(C)(C)c1cc(C=C(C#N)C#N)cc(C(C)(C)C)c1O`, the AC50 is 0.984 µM.

`O=C(NCc1ccccc1)C1=C[C@H](c2csc3ccccc23)C[C@H](OCCCCO)O1`: the AC50 is 6.75 µM.

As to `CCN(CC)c1ccc(/C=N/NC(=O)c2ccco2)c(O)c1`, the AC50 is 2.11 µM.

Values taken from PubChem BioAssay AID463229 (Broad Institute, 2010).
